Drawing on ChEMBL document CHEMBL1806406, “Antiplasmodial and cytotoxicity evaluation of 3-functionalized 2-azetidinone derivatives” (Bioorg Med Chem Lett, 2011), this text covers IC50 and inhibition of growth for 18 compounds.

The test system of experiment [1] is Plasmodium falciparum. The experiment is described as follows: Antiplasmodial activity against chloroquine-sensitive Plasmodium falciparum D10. In kind it is functional, organism-based.
The test system of experiment [2] is Plasmodium falciparum. Briefly: Antiplasmodial activity against chloroquine-resistant Plasmodium falciparum K1. Format: functional, organism-based.
The subject of experiment [3] is Plasmodium falciparum. The experiment is described as follows: Antiplasmodial activity against chloroquine-resistant Plasmodium falciparum W2. In kind it is functional, organism-based.
Experiment [4] deals with KB. Briefly: Cytotoxicity against human KB cells assessed as growth inhibition. In kind it is functional, cell-based.
The test system of experiment [5] is KB. Briefly: Cytotoxicity against human KB cells assessed as growth inhibition at 10 uM. In kind it is functional. The conditions noted are these: read-out: GI.
For experiment [6], the system named is KB. Briefly: Cytotoxicity against human KB cells assessed as growth inhibition at 100 uM. In kind it is functional. The conditions noted are these: read-out: GI.
The subject of experiment [7] is Plasmodium falciparum. The experiment is described as follows: Antiplasmodial activity against chloroquine-sensitive Plasmodium falciparum 3D7. In kind it is functional, organism-based.
Experiment [8] relates to KB. Briefly: Cytotoxicity against human KB cells assessed as growth inhibition at 0.5 uM. Format: functional. The conditions noted are these: read-out: GI.

A word on the IC50: it is the concentration that inhibits the measured activity by half.

`N[C@@H]1C(=O)N(c2ccccc2)[C@@H]1/C=C/c1ccccc1`: the midpoint of inhibition in experiment [1], the IC50, lay at 29.3 µM.

As to `[N-]=[N+]=N[C@@H]1C(=O)N(Cc2ccccc2)[C@@H]1/C=C/c1ccccc1`, the half-inhibitory concentration (IC50) in experiment [1] came to 4.7 µM.

In the case of `COC(=O)c1nnn([C@@H]2C(=O)N(C3CCCCC3)[C@@H]2/C=C/c2ccccc2)c1C(=O)OC`, the half-inhibitory concentration (IC50) in experiment [2] was greater than 45.7 µM; in experiment [3], greater than 20 µM; in experiment [4], greater than 228 µM; in experiment [7], greater than 45.7 µM. Also, in experiment [5], the inhibition of growth at 10 µM is -7.7%. For the same compound, the inhibition of growth at 100 µM in experiment [6] came to 8.07%.

With `Cc1ccc(N2C(=O)[C@@H](N)[C@H]2/C=C/c2ccccc2)cc1`, inhibition in experiment [1] was half-maximal at 59.9 µM (IC50).

On to `O=C1[C@@H](n2cc(-c3ccccc3)nn2)[C@@H](/C=C/c2ccccc2)N1c1ccccc1`, for which the IC50 in experiment [2] is greater than 51 µM; in experiment [3] it was 11.7 µM; in experiment [4], 91.2 µM; in experiment [7], greater than 51 µM. Further, the inhibition of growth at 10 µM in experiment [5] is 10%. In addition, in experiment [6], the inhibition of growth at 100 µM is 58.3%.

On to `Cc1ccc(N2C(=O)[C@@H](N=[N+]=[N-])[C@H]2/C=C/c2ccccc2)cc1`, for which, in experiment [1], the IC50 amounted to 5.83 µM.

In experiment [1], `[N-]=[N+]=N[C@@H]1C(=O)N(c2ccccc2)[C@@H]1/C=C/c1ccccc1` had an IC50 of 10.3 µM.

Turning to `O=C1[C@@H](n2cc(-c3ccccc3)nn2)[C@@H](/C=C/c2ccccc2)N1c1ccc(Cl)cc1`, the 50% inhibitory concentration (IC50) is 7.09 µM in experiment [2], 1 µM in experiment [3], 84.2 µM in experiment [4] and 7.86 µM in experiment [7]. Also, the inhibition of growth at 10 µM in experiment [5] worked out at 16.8%. Further, in experiment [6], the inhibition of growth at 100 µM turned out to be 79.3%.

For the compound `O=C1[C@@H](n2cc(-c3ccccc3)nn2)[C@@H](/C=C/c2ccccc2)N1C1CCCCC1`, the IC50 is 1.21 µM in experiment [2], 1 µM in experiment [3], 8.36 µM in experiment [4] and 1.13 µM in experiment [7]. Besides, the inhibition of growth at 10 µM in experiment [5] was determined as 76.8%. Besides, the inhibition of growth at 100 µM in experiment [6] was 99.7%.

As for `CCN(CC)CCCC(C)Nc1ccnc2cc(Cl)ccc12` (stereo unspecified) [CHLOROQUINE], the half-inhibitory concentration (IC50) in experiment [4] was 36 µM. The inhibition of growth at 10 µM in experiment [5] is 31.4%. Moreover, the inhibition of growth at 100 µM in experiment [6] stood at 97%.

Turning to `[N-]=[N+]=N[C@@H]1C(=O)N(c2ccc(Cl)cc2)[C@@H]1/C=C/c1ccccc1`, inhibition in experiment [1] was half-maximal at 4.47 µM (IC50).

Take `COC(=O)c1nnn([C@@H]2C(=O)N(c3ccc(Cl)cc3)[C@@H]2/C=C/c2ccccc2)c1C(=O)OC`: the IC50 was 12.3 µM in experiment [2], greater than 20 µM in experiment [3], 145 µM in experiment [4] and 25.1 µM in experiment [7]. Besides, the inhibition of growth at 10 µM in experiment [5] was found to be 19.5%. Besides, the inhibition of growth at 100 µM in experiment [6] amounted to 56.5%.

`COC(=O)c1nnn([C@@H]2C(=O)N(c3ccc(C)cc3)[C@@H]2/C=C/c2ccccc2)c1C(=O)OC`: the IC50 in experiment [3] was greater than 20 µM.

`COc1cc([C@@H]2c3cc4c(cc3[C@H](O)[C@H]3COC(=O)[C@H]23)OCO4)cc(OC)c1OC` [PODOFILOX]: the half-inhibitory concentration (IC50) in experiment [4] was found to be 0.0005 µM. In experiment [8], the inhibition of growth at 0.5 µM is 81.5%.

As for `Cc1ccc(N2C(=O)[C@@H](n3cc(-c4ccccc4)nn3)[C@H]2/C=C/c2ccccc2)cc1`, the IC50 worked out at 3.42 µM in experiment [2], 1 µM in experiment [3], 89.2 µM in experiment [4] and 12 µM in experiment [7]. Moreover, in experiment [5], the inhibition of growth at 10 µM came to 14.7%. Further, in experiment [6], the inhibition of growth at 100 µM was found to be 80.8%.

`N[C@@H]1C(=O)N(C2CCCCC2)[C@@H]1/C=C/c1ccccc1` showed an IC50 in experiment [1] of 18.6 µM.

In experiment [1], `N[C@@H]1C(=O)N(c2ccc(Cl)cc2)[C@@H]1/C=C/c1ccccc1` showed a concentration for half-maximal inhibition (IC50) of 38.1 µM.

`[N-]=[N+]=N[C@@H]1C(=O)N(C2CCCCC2)[C@@H]1/C=C/c1ccccc1` returned an IC50 in experiment [1] of 2.36 µM.
